Reference: BindingDB's records for doi:10.1021/jm040160b (Research Triangle Institute, 2005)

Target: Neuronal acetylcholine receptor subunit alpha-4/beta-2 (Rattus norvegicus, UniProt P09483+P12390)
Experiment: Inhibition of [3H]epibatidine binding to Nicotinic acetylcholine receptor alpha4-beta2 in rat cerebral cortex

Chain of Neuronal acetylcholine receptor subunit alpha-4/beta-2 (P09483 whole entry): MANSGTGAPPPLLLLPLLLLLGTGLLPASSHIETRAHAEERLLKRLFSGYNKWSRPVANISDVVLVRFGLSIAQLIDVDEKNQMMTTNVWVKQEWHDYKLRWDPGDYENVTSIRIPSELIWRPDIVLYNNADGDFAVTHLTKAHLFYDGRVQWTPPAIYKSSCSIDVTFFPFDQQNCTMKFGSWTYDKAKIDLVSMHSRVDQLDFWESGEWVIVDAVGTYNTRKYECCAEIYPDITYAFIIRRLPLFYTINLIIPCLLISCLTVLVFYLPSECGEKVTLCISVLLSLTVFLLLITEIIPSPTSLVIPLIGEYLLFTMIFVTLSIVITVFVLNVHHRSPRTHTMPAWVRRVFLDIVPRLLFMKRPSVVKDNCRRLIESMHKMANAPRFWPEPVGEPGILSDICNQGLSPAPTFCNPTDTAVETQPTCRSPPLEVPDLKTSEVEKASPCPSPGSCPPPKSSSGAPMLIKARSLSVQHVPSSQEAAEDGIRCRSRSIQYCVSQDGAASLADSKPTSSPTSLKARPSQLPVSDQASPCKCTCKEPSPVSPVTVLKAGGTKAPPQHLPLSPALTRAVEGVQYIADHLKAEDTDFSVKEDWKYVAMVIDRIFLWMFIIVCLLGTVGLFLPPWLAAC
Chain of Neuronal acetylcholine receptor subunit alpha-4/beta-2 (P12390 whole entry): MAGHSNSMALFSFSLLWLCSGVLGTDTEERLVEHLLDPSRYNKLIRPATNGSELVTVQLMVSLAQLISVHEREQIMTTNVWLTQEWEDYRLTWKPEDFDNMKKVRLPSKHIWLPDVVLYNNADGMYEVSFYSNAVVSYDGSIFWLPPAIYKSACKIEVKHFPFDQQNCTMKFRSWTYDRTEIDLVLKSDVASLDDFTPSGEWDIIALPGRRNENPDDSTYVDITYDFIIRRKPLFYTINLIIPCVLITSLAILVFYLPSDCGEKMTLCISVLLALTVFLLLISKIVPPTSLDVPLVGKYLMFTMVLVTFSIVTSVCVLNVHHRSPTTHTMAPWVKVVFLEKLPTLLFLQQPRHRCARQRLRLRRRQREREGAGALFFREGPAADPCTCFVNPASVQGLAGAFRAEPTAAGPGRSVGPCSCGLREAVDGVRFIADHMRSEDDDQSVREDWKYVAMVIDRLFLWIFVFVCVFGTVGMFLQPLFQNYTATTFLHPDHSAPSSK

Question: `Clc1cncc(C2CC3CCC2N3)c1` (stereo unspecified) [2-(5-Chloro-pyridin-3-yl)-7-aza-bicyclo[2.2.1]heptane] was tested. Which Ki did it give?
Answer: The Ki was 0.06 nM.
